Numbered stars: 1 amine (or outer) side, 2 acyl side, 3 side chain; on linkers, the order of the positions; unused ones are H or OH. Square brackets hold non-standard residues; d marks the D form. Side chains are listed from the residue outwards. Peptide text beside a SMILES is read from it. * marks the point of attachment. γGlu = O=C(O)[C@H](CCC(=O)[*:2])N[*:1]; Palmitoyl = CCCCCCCCCCCCCCCC(=O)*; Aib = CC(C)(N)C(=O)O
Columns and labels:
[1] = Body weight gain in high fat fed C57BL/6J mice (10 days); type: in vivo; conditions: short term high fat-fed C57BL/6J mice
Protocol: C57Bl/6J male mice, 6 weeks old, were acclimatized in their new environment for 4 weeks with free access to high fat diet (HFD) (D12492, Research Diet Inc., New Brunswick, USA) and water. The animals were injected s.c. with 100 μl vehicle for a period of three days to acclimatize the animals to handling and injections, prior to initiation of peptide treatment. […] Throughout the study, body weights were recorded daily and used to administer the body weight-corrected doses of peptide. All animals were sacrificed on the same day by cervical dislocation.
C57Bl/6J male mice on high fat diet (HFD) were treated (b.i.d.; s.c.) (0.5 and 5 nmol/kg) or vehicle. Body weights were recorded daily and used to administer the body weight-corrected doses of peptide throughout the study. Data are shown as mean±SEM in FIG. 7.

[2] = Food intake in young lean and old obese C57BL/6J mice; type: in vivo; conditions: s.c. at t=0 h and t=12 h, p<0.05 versus vehicle
Protocol: C57BL/6J mice were on a high fat diet for 11 days and C57BL/6J mice were on a high fat diet for 52 weeks.
3 days before study, the mice were transferred to individual cages and weighed. 4 days before study, they were acclimatized to handling and treatment by daily s.c. injections. On the day before the experiment food was removed at 20:00. […] Immediately after treatment (t=0), pre-weighed food were introduced to the mice and the cumulative food intake was measured by weighing the remaining food after t=1, 2, 4, 8, 12 and 24 hours. After weighing the food and the animals at t=24 h, the mice were sacrificed by cervical dislocation.
Immediately after treatment (t=0), pre-weighed food were introduced to the mice and the cumulative food intake was measured by weighing the remaining food after t=1, 2, 4, 8, 12 and 24 hours.

human Glucagon-R = target: T1, human Glucagon-R (Homo sapiens, UniProt P47871); assay: Glucagon receptor efficacy assay (cAMP formation in HEK293 cells expressing human Glucagon-R); type: cell-based; conditions: Table 1a, HEK293 cells expressing hGlucagonR, read-out: EC50 (nM) GluR
T1 construct: expressed in transfected cells
T1 sequence (P47871 26-477): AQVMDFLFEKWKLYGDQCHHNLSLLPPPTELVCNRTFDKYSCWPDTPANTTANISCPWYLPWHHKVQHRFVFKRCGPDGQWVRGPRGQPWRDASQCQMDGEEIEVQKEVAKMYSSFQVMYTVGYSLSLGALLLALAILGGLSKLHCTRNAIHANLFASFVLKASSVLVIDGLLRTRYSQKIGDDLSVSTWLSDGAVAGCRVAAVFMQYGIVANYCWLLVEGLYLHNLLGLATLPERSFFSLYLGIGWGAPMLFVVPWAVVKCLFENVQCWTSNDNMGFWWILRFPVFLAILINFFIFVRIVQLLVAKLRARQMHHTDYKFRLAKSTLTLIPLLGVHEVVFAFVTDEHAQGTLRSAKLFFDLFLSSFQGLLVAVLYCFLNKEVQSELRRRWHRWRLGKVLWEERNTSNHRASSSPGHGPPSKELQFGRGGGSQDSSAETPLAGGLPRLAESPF
Protocol: The 5′-end primers additionally encoded a near Kozak consensus sequence to ensure efficient translation.
48 hr after transfection cells were seeded for limited dilution cloning and selected with 1 mg/ml G418 in the culture medium.
On the day of analysis, growth medium was removed and the cells washed once with 200 μl Tyrode buffer. […] The reaction was stopped by addition of 25 μl 0.5 M HCl and incubated on ice for 60 min. The cAMP content was estimated using the FlashPlate® cAMP kit from Perkin-Elmer.
Efficacy of the GluGLP-1 agonists were estimated by exposing cells expressing hGlucagonR and hGLP-1R to the listed acylated compounds at increasing concentrations and measuring the formed cAMP as described in Methods.

GluR = target: T2, GluR (Homo sapiens, UniProt P47871); assay: Hepatocyt cAMP formation (primary human hepatocyts); type: cell-based
T2 construct: Primary human hepatocyts provided by Lonza Walkersvill, Inc; host or cells: primary human hepatocytes
T2 sequence (P47871 26-477): as above
Protocol: Primary human hepatocyts provided by Lonza Walkersvill, Inc. were carefully washed in TB buffer and incubated at 37° C. with peptides dissolved in TB buffer supplemented with 100 μM IBMX and 0.1% casein for 15 minutes. Prior to addition to the cells, the peptide dilutions were pre-warmed to 37° C. The reaction was stopped by addition of 25 μl of ice cold 0.5 M HCl, and the cells were incubated on ice for 60 min. The cAMP content in the wells was determined by adding 25 μl of the acid extracts from the wells to 75 μl sodium acetate buffer, pH 6.2, in 96-well microtiter “FlashPlates” coated with scintillant and anti-cAMP antibodies.
The amount of cAMP produced by the cells was calculated by extrapolation to a cAMP standard curve.
EC50 values were estimated by fitting the cAMP data to the below formula using Sigma Plot: […]

[3] = Pharmacokinetic screening in mouse plasma after subcutaneous administration; type: in vivo; conditions: sc, mice, 100 nmol/kg s.c., * = only two time points used for calculation
Protocol: Mice were dosed 100 nmol/kg subcutaneously (s.c.). The mice were sacrificed and the blood collected at the following time points; 0.5, 2, 4, 6, 16 and 24 h. Plasma samples were analyzed using protein precipitation, followed by solid phase extraction (SPE) and liquid chromatography mass spectrometry (LC-MS).
Pharmacokinetic profiles were determined for various acylated compounds.

[4] = Liver weight/body weight of C57BL/6J mice treated for 2 weeks; type: in vivo; conditions: 5 nmol/kg twice daily s.c.
Protocol: Mice were treated twice daily s.c. with Cpd. 1 and Cpd. 11 (at two doses: 0.5 and 5 nmol/kg) or vehicle for 2 weeks. Throughout the study, body weights were recorded daily and used to administer the body weight-corrected doses of peptide. On the day of sacrifice, the liver was exposed, and weighed.

Which “body weight gain, low dose” value ([1]; 0.5 nmol/kg b.i.d. s.c.) does the source give for Exendin-4 [reference compound] here?
The value was “significantly decreased body weight gain at both doses”.

What about the “body weight gain, high dose” value ([1]; 5 nmol/kg b.i.d. s.c.) of the same compound?
The value was “significantly decreased body weight gain at both doses”.

And the “food intake, old obese mice” value ([2]; high fat diet for 52 weeks)?
The value was “reduced food intake in all time periods”.

What about the “food intake, young lean mice” value ([2]; high fat diet for 11 days) of the same compound?
Its value is “reduced food intake during the 0-2, 0-4, 0-8, 0-12 and 0-24 time periods”.

Which EC50 (human Glucagon-R) does the source give for CCCCCCCCCCCCCCCC(=O)NCCCC(=O)NCCCC[C@H](NC(=O)[C@H](CO)NC(=O)[C@H](CC(=O)O)NC(=O)[C@H](CC(C)C)NC(=O)[C@H](Cc1ccc(O)cc1)NC(=O)[C@H](CCCCN)NC(=O)[C@H](CO)NC(=O)[C@H](Cc1ccc(O)cc1)NC(=O)[C@H](CC(=O)O)NC(=O)[C@H](CO)NC(=O)[C@@H](NC(=O)[C@H](Cc1ccccc1)NC(=O)[C@@H](NC(=O)CNC(=O)[C@H](CCC(N)=O)NC(=O)C(C)(C)NC(=O)[C@@H](N)Cc1c[nH]cn1)[C@@H](C)O)[C@@H](C)O)C(=O)N[C@@H](C)C(=O)N[C@@H](C)C(=O)N[C@@H](Cc1c[nH]cn1)C(=O)N[C@@H](CC(=O)O)C(=O)N[C@@H](Cc1ccccc1)C(=O)N[C@H](C(=O)N[C@@H](CCC(=O)O)C(=O)N[C@@H](Cc1c[nH]c2ccccc12)C(=O)N[C@@H](CC(C)C)C(=O)N[C@@H](CC(C)C)C(=O)N[C@@H](CO)C(=O)N[C@@H](C)C(N)=O)C(C)C [Compound 27] here?
Its EC50 is 0.147 nM.

For CCCCCCCCCCCCCCCC(=O)N[C@@H](CCC(=O)NCCCC[C@H](NC(=O)[C@H](C)NC(=O)[C@H](C)NC(=O)[C@H](CCCCN)NC(=O)[C@H](CO)NC(=O)[C@H](CC(=O)O)NC(=O)[C@H](CC(C)C)NC(=O)[C@H](Cc1ccc(O)cc1)NC(=O)[C@H](CCCCN)NC(=O)[C@H](CO)NC(=O)[C@H](Cc1ccc(O)cc1)NC(=O)[C@H](CC(=O)O)NC(=O)[C@H](CO)NC(=O)[C@@H](NC(=O)[C@H](Cc1ccccc1)NC(=O)[C@@H](NC(=O)CNC(=O)[C@H](CCC(N)=O)NC(=O)C(C)(C)NC(=O)[C@@H](N)Cc1c[nH]cn1)[C@@H](C)O)[C@@H](C)O)C(=O)N[C@@H](CC(=O)O)C(=O)N[C@@H](Cc1ccccc1)C(=O)N[C@H](C(=O)N[C@@H](CCC(=O)O)C(=O)N[C@@H](Cc1c[nH]c2ccccc12)C(=O)N[C@@H](CC(C)C)C(=O)N[C@@H](CC(C)C)C(=O)N[C@@H](CO)C(=O)N[C@@H](C)C(N)=O)C(C)C)C(=O)O [Compound 35] (H-H[Aib]QGTFTSDYSKYLDSKAAK([γGlu-Palmitoyl])DFVEWLLSA-NH2), which EC50 (human Glucagon-R) is on record?
The EC50 was 0.18 nM.

With CCCCCCCCCCCCCCCC(=O)N[C@@H](CCC(=O)NCCCC[C@H](NC(=O)[C@H](C)NC(=O)[C@H](C)NC(=O)[C@H](CCC(N)=O)NC(=O)CNC(=O)[C@H](CCC(=O)O)NC(=O)[C@H](CC(C)C)NC(=O)[C@H](Cc1ccc(O)cc1)NC(=O)[C@H](CO)NC(=O)[C@H](CO)NC(=O)[C@@H](NC(=O)[C@H](CC(=O)O)NC(=O)[C@H](CO)NC(=O)[C@@H](NC(=O)[C@H](Cc1ccccc1)NC(=O)[C@@H](NC(=O)CNC(=O)[C@H](CCC(=O)O)NC(=O)[C@H](C)NC(=O)[C@@H](N)Cc1cnc[nH]1)[C@@H](C)O)[C@@H](C)O)C(C)C)C(=O)N[C@@H](CCC(=O)O)C(=O)N[C@@H](Cc1ccccc1)C(=O)N[C@H](C(=O)N[C@@H](C)C(=O)N[C@@H](Cc1c[nH]c2ccccc12)C(=O)N[C@@H](CC(C)C)C(=O)N[C@H](C(=O)N[C@@H](CCCNC(=N)N)C(=O)NCC(=O)N[C@@H](CCCNC(=N)N)C(=O)NCC(=O)O)C(C)C)[C@@H](C)CC)C(=O)O [Liraglutide] as the compound, how does the “GluR EC50 (nM) (1)” value (GluR; experiment (1)) read?
The value was “∞”.

What about the “GluR EC50 (nM) (2)” value (GluR; experiment (2)) of the same compound?
Its value is “∞”.

And the “GluR EC50 (nM) (log avg)” value (GluR; log average of (1) and (2))?
Its value is “∞”.

For CCCCCCCCCCCCCCCC(=O)N[C@@H](CCC(=O)NCCCC[C@H](NC(=O)[C@H](CO)NC(=O)[C@H](CC(=O)O)NC(=O)[C@H](CC(C)C)NC(=O)[C@H](Cc1ccc(O)cc1)NC(=O)[C@H](CCCCN)NC(=O)[C@H](CO)NC(=O)[C@H](Cc1ccc(O)cc1)NC(=O)[C@H](CC(=O)O)NC(=O)[C@H](CO)NC(=O)[C@@H](NC(=O)[C@H](Cc1ccccc1)NC(=O)[C@@H](NC(=O)CNC(=O)[C@H](CCC(N)=O)NC(=O)C(C)(C)NC(=O)[C@@H](N)Cc1c[nH]cn1)[C@@H](C)O)[C@@H](C)O)C(=O)N[C@@H](C)C(=O)N[C@@H](C)C(=O)N[C@@H](Cc1c[nH]cn1)C(=O)N[C@@H](CC(=O)O)C(=O)N[C@@H](Cc1ccccc1)C(=O)N[C@H](C(=O)N[C@@H](CCC(=O)O)C(=O)N[C@@H](Cc1c[nH]c2ccccc12)C(=O)N[C@@H](CC(C)C)C(=O)N[C@@H](CC(C)C)C(=O)N[C@@H](CCC(=O)O)C(=O)N[C@@H](C)C(N)=O)C(C)C)C(=O)O [Compound 43] (H-H[Aib]QGTFTSDYSKYLDSK([γGlu-Palmitoyl])AAHDFVEWLLEA-NH2), which EC50 (human Glucagon-R) is on record?
Its EC50 is 0.12 nM.

For “H-HSQGTFTSDYSKYLDSKAAHDFVEWLLRA-NH2 [Compound 1]”, which half-life [3] is on record?
Its half-life is 13.8 min.

And the “liver weight/body weight ratio, high dose” value [4]?
The value was “significantly increased”.

Which EC50 (human Glucagon-R) does the source give for CCCCCCCCCCCCCCCC(=O)N[C@@H](CCC(=O)NCCCC[C@H](NC(=O)[C@H](CC(C)C)NC(=O)[C@H](CC(C)C)NC(=O)[C@H](Cc1c[nH]c2ccccc12)NC(=O)[C@H](CCC(=O)O)NC(=O)[C@@H](NC(=O)[C@H](Cc1ccccc1)NC(=O)[C@H](CC(=O)O)NC(=O)[C@H](Cc1c[nH]cn1)NC(=O)[C@H](C)NC(=O)[C@H](C)NC(=O)[C@H](CCCCN)NC(=O)[C@H](CO)NC(=O)[C@H](CC(=O)O)NC(=O)[C@H](CC(C)C)NC(=O)[C@H](Cc1ccc(O)cc1)NC(=O)[C@H](CCCCN)NC(=O)[C@H](CO)NC(=O)[C@H](Cc1ccc(O)cc1)NC(=O)[C@H](CC(=O)O)NC(=O)[C@H](CO)NC(=O)[C@@H](NC(=O)[C@H](Cc1ccccc1)NC(=O)[C@@H](NC(=O)CNC(=O)[C@H](CCC(N)=O)NC(=O)C(C)(C)NC(=O)[C@@H](N)Cc1c[nH]cn1)[C@@H](C)O)[C@@H](C)O)C(C)C)C(=O)N[C@@H](C)C(N)=O)C(=O)O [Compound 37] (H-H[Aib]QGTFTSDYSKYLDSKAAHDFVEWLLK([γGlu-Palmitoyl])A-NH2) here?
The EC50 was 0.147 nM.

With CCCCCCCCCCCCCCCC(=O)N[C@@H](CCC(=O)NCCCC[C@H](NC(=O)[C@H](CO)NC(=O)[C@H](CC(=O)O)NC(=O)[C@H](CC(C)C)NC(=O)[C@H](Cc1ccc(O)cc1)NC(=O)[C@H](CCCCN)NC(=O)[C@H](CO)NC(=O)[C@H](Cc1ccc(O)cc1)NC(=O)[C@H](CC(=O)O)NC(=O)[C@H](CO)NC(=O)[C@@H](NC(=O)[C@H](Cc1ccccc1)NC(=O)[C@@H](NC(=O)CNC(=O)[C@H](CCC(N)=O)NC(=O)C(C)(C)NC(=O)[C@@H](N)Cc1c[nH]cn1)[C@@H](C)O)[C@@H](C)O)C(=O)N[C@@H](C)C(=O)N[C@@H](C)C(=O)N[C@@H](CCC(=O)O)C(=O)N[C@@H](CC(=O)O)C(=O)N[C@@H](Cc1ccccc1)C(=O)N[C@H](C(=O)N[C@@H](CCC(=O)O)C(=O)N[C@@H](Cc1c[nH]c2ccccc12)C(=O)N[C@@H](CC(C)C)C(=O)N[C@@H](CC(C)C)C(=O)N[C@@H](CO)C(=O)N[C@@H](C)C(N)=O)C(C)C)C(=O)O [Compound 42] (H-H[Aib]QGTFTSDYSKYLDSK([γGlu-Palmitoyl])AAEDFVEWLLSA-NH2) as the compound, how does the EC50 (human Glucagon-R) read?
The EC50 was 0.27 nM.
